# Biological target: T1, sBAD (formerly sHbaR); LexA-HbaR ligand-binding domain-B112 synthetic transcription factor (Rhodopseudomonas palustris, UniProt Q9RFR5)
# T1 construct: expressed in S. cerevisiae CEN.PK 2C-1
# T1 sequence (Q9RFR5 1-241 limits assumed): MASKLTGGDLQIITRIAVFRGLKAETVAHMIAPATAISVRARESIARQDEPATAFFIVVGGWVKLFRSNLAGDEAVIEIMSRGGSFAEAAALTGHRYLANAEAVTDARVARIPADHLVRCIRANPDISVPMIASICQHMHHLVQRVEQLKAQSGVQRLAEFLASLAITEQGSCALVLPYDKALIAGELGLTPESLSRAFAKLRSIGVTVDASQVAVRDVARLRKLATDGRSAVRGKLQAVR
# Experiment: mCitrine reporter activation in yeast, flow cytometry, dose-response
# Assay type: cell-based, Saccharomyces cerevisiae
# Description: mCitrine reporter activation in yeast, flow cytometry, dose-response on sBAD (formerly sHbaR); LexA-HbaR ligand-binding domain-B112 synthetic transcription factor
row,SMILES,EC50
1,"O=C(O)c1ccc(O)cc1 [HBA, 4-hydroxybenzoic acid]",749 ± 399 µM
2,O=C(O)c1ccccc1 [benzoic acid],47 ± 20 µM
3,"Nc1ccc(C(=O)O)cc1 [pABA, 4-aminobenzoic acid]",169 ± 81 µM
4,CC(=O)Oc1ccccc1C(=O)O [aspirin],598 ± 283 µM

# From article PMC6959289, “Development of a Biosensor for Detection of Benzoic Acid Derivatives in Saccharomyces cerevisiae” (Frontiers in Bioengineering and Biotechnology, 2020)
